Assay results from article PMC11725581, “Developing novel Lin28 inhibitors by computer aided drug design” (Cell Death Discovery, 2025).
pIC50: −log10 of the molar value.

Key:
cancer cells = test system: cancer cells; design: method as in PMID 27548809; details: cited from earlier work
DuNE spheroids = experiment: DuNE 3D spheroid growth (Incucyte); assay type: cell-based; details: 0-100 μM, 0-6 days, read-out: concentration to achieve 50% spheroid growth inhibition
Source text: (§1) CSCs have characteristic tumorigenic, self-renewal, and differentiation properties. The self-renewal ability is hijacked by CSCs that makes them both tumorigenic and capable of sustaining long-term tumor growth, which can be evaluated by 3D spheroid and colony formation assays. We established a DuNE spheroid model in which DuNE cells formed 3D spheroids in 96-well plates (Figure S3). By integrating this 3D culture with the Incucyte live-cell imaging system, we quantified the sizes of the spheroid growth over 0–6 days to generate a spheroid growth curve. Using this model system, we treated the DuNE spheroids with increasing doses (0–100 μM) of C1632, Ln15, and Ln268 for 0–6 days. […] In addition, classic colony formation assays were used to measure the stemness in the DuNE model. Colony formation counts, which were ~50 under vehicle treatment after 14 days, decreased by 22% in C1632-treated plates, and by 75% and 96% in the Ln15 and Ln268 treated plates, respectively (Fig. 4D).
For a spheroid generation, 1000 cells/well were seeded in 96-well ULA round-bottomed plates (Corning, Amsterdam) using a multichannel pipette. 3D multicellular spheroids were spontaneously generated after 24 h culture. Plates were incubated for 6 days at 37 °C, 5% CO2, and 95% humidity. DuNE and Du145 cells were cultured in DMEM with 10% FBS. Fully automated image analysis of tumor spheroids was carried out with the Incucyte® S3 Live-Cell Analysis System. The size and shape of multicellular spheroids were analyzed by using the Incucyte® Spheroid Analysis Software Module.

DuNE cells = experiment: Colony formation assay, DuNE cells; assay type: cell-based; details: 14 days, vs vehicle (~50 colonies)
Source text: as §1
In the colony formation assays, cancer cells were seeded in 0.7% soft agar in a 6-well plate, with a 1% soft agar bottom base coating. Cells were allowed to grow for 14 days to form colonies. Colonies were stained with crystal violet and imaged by stitching 5X field images together to capture the entire well (Zeiss light microscope [Carl Zeiss]). Colony numbers were counted according to their diameters (100-300um or >300um). Three independent biological replicates were performed for all the assays.

Lin28a protein = molecular target: T1, Lin28a protein (Homo sapiens, UniProt Q9H9Z2); experiment: EMSA with Lin28a protein and pre-let-7d probe; assay type: binding; details: same EMSA conditions
T1 sequence (Q9H9Z2 1-209): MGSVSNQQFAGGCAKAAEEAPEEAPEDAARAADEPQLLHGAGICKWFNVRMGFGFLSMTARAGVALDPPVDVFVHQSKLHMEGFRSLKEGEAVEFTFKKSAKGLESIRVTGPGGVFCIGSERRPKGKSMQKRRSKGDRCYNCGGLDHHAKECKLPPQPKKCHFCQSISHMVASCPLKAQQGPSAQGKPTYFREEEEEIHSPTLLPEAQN
Procedure: (§2) We next validated the newly developed compounds using EMSA, a non-florescent-based assay to detect Lin28b ZKD:pre-let-7 complex formation. Similar to the FP assays, we first optimized the experimental conditions by titrating: (1) IRDye800-labeled pre-let-7d RNA probe, (2) Lin28b ZKD protein, and (3) non-labeled pre-let-7 probe as a competitor (Fig. 2C). For the validation experiments, 1 μM Lin28 ZKD and 10 nM of IRDye800-labeled pre-let-7d probe were mixed with each candidate compound. Compounds C1632 and Ln15 were used as control Lin28 inhibitors, respectively. […] Regardless, we use these two biochemical assays to shortlist the most promising compounds for further characterization. […] While our inhibitors directly target the Lin28 ZKD, it is unclear whether C1632 may bind to domains other than the ZKD or allosterically disrupt Lin28’s capacity to bind its RNA substrates.
EMSA followed the standard protocols we published. An IRDye800CWN-labeled pre-Let-7d RNA probe (5’-IRD800CWN-[…]-3’) was purchased from IDT (Coralville, IA, USA). Lin28a or Lin28b proteins were incubated with 300 nM of probe in a standard 20 uL EMSA reaction in a reaction buffer containing 20 mM HEPES-NaOH, pH 7.4, 2 mM DTT, 3 mM MgCl2, 0.05% NP-40, protease inhibitors, and 0.1 ug poly[dI:dC]. After incubation for 30 min at 37 °C, reactions were loaded onto 4% non-denatured polyacrylamide gel in 0.5× TBE buffer. […]

Lin28b ZKD [1] = molecular target: T2, Lin28b ZKD (Homo sapiens, UniProt Q6ZN17); experiment: EMSA, Lin28b ZKD:pre-let-7d complex formation; assay type: binding; details: 1 μM Lin28 ZKD, 10 nM IRDye800-labeled pre-let-7d probe
T2 sequence (Q6ZN17 127-166 limits assumed): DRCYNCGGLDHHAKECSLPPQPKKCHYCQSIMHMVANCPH
Procedure: as §2
EMSA followed the standard protocols we published. An IRDye800CWN-labeled pre-Let-7d RNA probe (5’-IRD800CWN-[…]-3’) was purchased from IDT (Coralville, IA, USA). Lin28a or Lin28b proteins were incubated with 300 nM of probe in a standard 20 uL EMSA reaction in a reaction buffer containing 20 mM HEPES-NaOH, pH 7.4, 2 mM DTT, 3 mM MgCl2, 0.05% NP-40, protease inhibitors, and 0.1 ug poly[dI:dC]. After incubation for 30 min at 37 °C, reactions were loaded onto 4% non-denatured polyacrylamide gel in 0.5× TBE buffer. The RNA oligo bands were visualized by using the Li-Cor Odyssey 9120 Infrared Imaging System.

Lin28b ZKD [2] = molecular target: T2, Lin28b ZKD; experiment: Fluorescence polarization (FP) assay, Lin28b ZKD:pre-let-7d interaction; assay type: binding; details: 10 nM pre-let-7d probe, 1 μM Lin28b ZKD
Procedure: We conducted two biochemical assays, FP and EMSA, to validate the predicted compounds. To optimize the FP assays, we performed a series of titrations using: (1) FAM-labeled pre-let-7d RNA probe, (2) Lin28b ZKD protein, and (3) non-labeled pre-let-7 probe as a competitor (Fig. 2A). These assays yielded the optimal concentrations required for the subsequent FP validation assays, namely 10 nM for the pre-let-7d probe and 1 μM for Lin28b ZKD protein. The FP signal from the free probe was set as 0%, while the signal from the probe-ZKD complex in the absence of compounds was set as 100%. C1632 was used as a control Lin28 inhibitor (Fig. 2B). […] Since the docking pocket is almost identical between Lin28a and Lin28b homologs, we repeated the FP assays using Lin28a ZKD (Figure S2).
The fluorescein amidites (FAM)-tagged pre-Let-7d probe with the sequence of […] was purchased from Integrated DNA Technologies (IDT). The probe at the concentrations ranging from 1 nM to 50 uM was incubated with Lin28B (ZKD) or Lin28 (CSD+ZKD) to a final volume of 30 uL at room temperature for 20 min. To read the fluorescence, a TECAN 500 machine was used. Fluorescence polarization was calculated using the following equation:
P=(Fparrallel−Fperpendicular)/(Fparrallel+FperpendicularP)
where P is the fluorescence polarization reading, F parallel is the fluorescence intensity acquired from the parallel excitation plane, and F perpendicular is the fluorescence intensity acquired from the perpendicular direction of the excitation plane. The total fluorescence intensity is estimated using the following equation:
F=Fparallel+2FperpendicularF.
All the raw FP signal data from the TECAN 500 FP results were analyzed using Prism 8.0 (GraphPad, San Diego, CA, USA); normalized curves were plotted and IC50 values were estimated. All FP data were repeated three to five times.
Figure S1. Lin28b ZKD protein was incubated with the indicated compounds at the concentration of 0, 0.1, 0.2, 0.5, 1, 2, 5, 10, 20, 50, 100, and 200uM. FP signals were measured and plotted relative to that from vehicle.

Lin28b ZKD [3] = molecular target: T2, Lin28b ZKD; experiment: 1H-15N HSQC NMR of Lin28b-ZKD with ligand; assay type: binding; details: ligand added in 20:1 molar ratio
Source text: Given that Ln268 is derived from the parent compound Ln15, we wanted to assess whether the improved properties of Ln268 were linked to a potential difference in its interaction with Lin28 ZKD. To this end, we collected ^1H-^15N HSQC spectra of Lin28b-ZKD, Lin28b-ZKD + Ln15, and Lin28b-ZKD + Ln268. RNA binding proteins (RBPs) commonly have binding pockets that are intrinsically disordered, as evidenced by the narrow chemical shift dispersion observed in the HQSC of Lin28b-ZKD alone (Fig. 3D). Addition of either Ln15 or Ln268 led to changes in the chemical shifts of ca. 20 residues, consistent with the change in conformation of the Lin28b-ZKD segment which encompasses residues 137–160 (three of which are prolines) upon RNA binding (Fig. 3E). Although many of the peak shifts are the same for the Ln15 and Ln268 containing samples, there are around 7 resonances where the peaks disappear in the case of Ln268.
NMR spectra were recorded at 5 °C on a Bruker Avance III 850 MHz spectrometer, equipped with a TCI cryoprobe. ^1H-^15N HSQC experiments were recorded on ^13C/^15N-labeled Lin28b ZKD (230 μM), in 20 mM d-Tris-HCl (pH 7.5), 100 mM NaCl, 1 mM d-DTT, 0.02% NaN3, 0.25 mM ZnCl2 + 1 mM IDA, and 10% D2O, to which unlabeled Ln15 and Ln268 was added, respectively. The time domain matrix was 4k by 512. Four scans were acquired per t1 increment. Spectra were processed and plotted using Topspin to a final size of 8k by 1k. For the overlays, the levels were set to the same base level in all cases, with a multiplication factor of 1.1.

| Compound | concentration needed for inhibitory effects on cancer cells (cancer cells) | pIC50 (DuNE spheroids) | decrease of colony formation counts (DuNE cells) | inhibition of Lin28a protein (EMSA) (Lin28a protein) | inhibition of Lin28b ZKD:pre-let-7d complex formation (EMSA) (Lin28b ZKD [1]) | pIC50 (Lin28b ZKD [2]) | residues of Lin28b-ZKD with changed chemical shifts (1H-15N HSQC) (Lin28b ZKD [3]) |
| --- | --- | --- | --- | --- | --- | --- | --- |
| CC(=O)N(C)c1cccc(-c2ccc3nnc(C)n3n2)c1 [C1632, reference compound] | exceeding 100 μM | 4.00 | 22% | did not observe any obvious inhibition | did not observe any obvious inhibition |  |  |
| O=c1[nH]c(Nc2ccccc2O)cs1 [Ln15] |  | 4.30 | 75% |  |  | 5.05 | ca. 20 residues |
